We go through four compounds from patent publication US12697321B2, “Kv1.3 antagonists for use in the treatment of chronic and acute pain” (SEA4US—BIOTECNOLOGIA E RECURSOS MARINHOS, LDA., priority 2019, dated 2026).

One experiment relates to K^+ currents from sdTGNs. Kind of experiment: Whole-cell voltage-clamp of K+ currents in small diameter trigeminal ganglion neurons. To be noted: dose dependent manner.
For the next experiment, the target named is T1, hKv1.3 (Homo sapiens, UniProt P22001).
T1 construct: expressed in transfected cells
Nature of the experiment: Whole-cell voltage-clamp on cell lines expressing Kv1.x channels (nitenin). It is filed as cell-based. An excerpt:
In the context of this disclosure, “affinity” relates to the effect on the activity of such channel. Affinity can be measured by voltage clamp recordings of currents evoked by cells that express solely that given channel.
Voltage-clamp recordings under the whole-cell configurations were/are used to measure the ‘amount of inhibition’ of the whole-cell current evoked by a given channel expressed in non-excitable cell lines. Dose responses are obtained by measuring such inhibitions per each concentration. Voltage-activated K+ currents were evoked from mammalian cell lines expressing Kv1.1, Kv1.2, Kv1.3, Kv1.4, Kv1.5, kv1.6 or kv1.7 using standard voltage protocols (Schmitz et al., 2005; Vennekamp et al.).

Experiment [1] relates to CCI rats (chronic constriction of the sciatic nerve of Wistar rats). The conditions noted are these: for efficacy for short-term/acute and long-term/chronic neuropathic pain: intravenous administration.
In experiment [2] the test system is K^+ currents recorded from a small diameter neuron isolated from a dorsal-root ganglion of the 'affected' side of a CCI rat. Kind of experiment: Voltage dependence of steady-state inactivation of K+ currents, sdDRG neuron of CCI rat. To be noted: CCI rat 28 days after surgery.

Counter-ions that a name gives are not always drawn.

T1 sequence (P22001 whole entry): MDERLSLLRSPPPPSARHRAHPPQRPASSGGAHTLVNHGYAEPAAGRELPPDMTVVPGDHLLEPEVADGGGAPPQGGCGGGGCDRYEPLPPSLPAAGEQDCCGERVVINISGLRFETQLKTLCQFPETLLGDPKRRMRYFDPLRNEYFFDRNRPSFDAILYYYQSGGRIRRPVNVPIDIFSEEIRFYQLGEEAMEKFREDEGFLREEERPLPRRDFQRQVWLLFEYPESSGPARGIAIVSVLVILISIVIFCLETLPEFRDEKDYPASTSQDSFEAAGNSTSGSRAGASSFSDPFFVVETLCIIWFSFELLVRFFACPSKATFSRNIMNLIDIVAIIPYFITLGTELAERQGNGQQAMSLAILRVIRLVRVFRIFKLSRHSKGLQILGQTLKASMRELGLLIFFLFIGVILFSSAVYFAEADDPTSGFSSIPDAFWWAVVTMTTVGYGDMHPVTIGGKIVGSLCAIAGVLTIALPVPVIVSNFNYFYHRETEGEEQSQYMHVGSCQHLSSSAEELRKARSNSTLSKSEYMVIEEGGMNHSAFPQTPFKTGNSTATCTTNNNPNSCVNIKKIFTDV

As for `C/C(=C\C1C/C(=C/CCc2ccoc2)C(=O)O1)CCCc1ccoc1` (stereo not shown) [nitenin], the “effect on K+ currents from sdTGNs” value with K^+ currents from sdTGNs was “inhibit the K^+ currents”. At hKv1.3, this compound came in with an IC50 of about 0.19 µM. The “efficacy for short-term/acute and long-term/chronic neuropathic pain” value in experiment [1] is reported as “effective”. Besides, the “mechanical sensitivity of the ipsilateral leg at maximum effect” value in experiment [1] (nitenin IV, estimated plasma concentration 1 μg/ml, 26 days after surgery, Von Frey) is recorded as “in some instances similar to those obtained during baseline”. In addition, the “Vh1 (voltage of half maximum current, component 1) of steady-state inactivation” value (“Vh1” for short) in experiment [2] (nitenin 0.29 μM, control Vh1=−73.3 mV) is given as −95.3 mV. In addition, the “Vh2 (voltage of half maximum current, component 2) of steady-state inactivation” value (“Vh2” below) in experiment [2] (nitenin 0.29 μM, control Vh2=−26.3 mV) is −47.0 mV.
As for `O=c1ccc2c(OCCCCc3ccccc3)c3ccoc3cc2o1` [PSORA-4, 4-(4-Phenylbutoxy)-7H-furo[3,2-g][1]benzopyran-7-one], in the experiment on K^+ currents from sdTGNs, the “effect on K+ currents from sdTGNs” value was “inhibit the K^+ currents”. Also, the “efficacy for short-term/acute and long-term/chronic neuropathic pain” value in experiment [1] is recorded as “effective”.
For `CN(CCc1ccc(Cl)c(Cl)c1)CC(O)COc1ccc(NS(C)(=O)=O)cc1` (stereo not shown) [AM92016 hydrochloride], the “effect on K+ currents from sdTGNs” value in the experiment with K^+ currents from sdTGNs is “inhibit the K^+ currents”. The “efficacy for short-term/acute and long-term/chronic neuropathic pain” value in experiment [1] was “effective”. Moreover, the “Vh1” value in experiment [2] (AM92016 hidrochloride 40 nM, control Vh1=−71.3 mV) is −93.63 mV. For the same compound, in experiment [2] (AM92016 hidrochloride 40 nM, control Vh2=−28.2 mV), the “Vh2” value was −33.6 mV.
With `O=c1ccc2c(OCCCCOc3ccccc3)c3ccoc3cc2o1` [PAP-1, 5-(4-Phenoxybutoxy)psoralen], the “effect on K+ currents from sdTGNs” value with K^+ currents from sdTGNs was “inhibit the K^+ currents”. The “efficacy for short-term/acute and long-term/chronic neuropathic pain” value in experiment [1] was “effective”. Besides, in experiment [2] (PAP-1 2 nM, control Vh1=−90.1 mV), the “Vh1” value was −101.7 mV. Besides, in experiment [2] (PAP-1 2 nM, control Vh2=−27.8 mV), the “Vh2” value is listed as −32.6 mV.
